Ends that are not written are not given here. * marks the point of attachment. Palmitoyl = CCCCCCCCCCCCCCCC(=O)*
What was measured:
[1] = system: T1, rBPI; test: BPI microtiter binding assay, LPS biotin-coated plates; set-up: species or system human; settings: ligand pre-incubated with 20 nM rBPI
T1 construct: the human BPI (aa 32-487) and a C-terminal FLAG Tag; HA signal peptide (N); made in house; host or cells: HEK293T
Procedure: BPI binding assays were performed using a protocol published for LBP ([9]) with some modifications. Streptavidin-coated 96-well plates (Nunc^TM Immobilizer^TM Streptavidin F96 clear, Thermo Fisher Scientific, Waltham, MA, USA) were coated with LPS biotin (2 μg/ml) or Pam2CSK4 biotin (1 μg/ml) in PBS overnight at 23°C with gentle agitation. After washing with assay buffer (150 mM NaCl, 50 mM HEPES, Sigma Aldrich, Taufkirchen, Germany) containing 0.01% Casein, plates were blocked with 10 g/l BSA (Sigma Aldrich, Taufkirchen, Germany) at 37°C and washed again. Thereafter, ligands were preincubated with 20 nM BPI in assay buffer containing 1 g/l BSA for 30 min and loaded onto the plates. In case of bacterial lysates, 0.05% Tween 20 was added for preincubation. After incubation for 1 h at 37°C, three washing steps were performed. Bound BPI was detected by murine anti-human BPI monoclonal antibody (Cat.-No. HM2042, Hycult Biotech, Uden, Netherlands) and HRP-conjugated rabbit anti-mouse IgG (Cat.-No. 315-035-048, Dianova, Hamburg, Germany). TMB (BD OptEIA^TM TMB Substrate Reagent Set, BD Biosciences, Heidelberg, Germany) was used as a substrate for peroxidase. After addition of 1 N HCl, absorbance was measured at 450 nm. Technical replicates were performed at least two times using exactly the same reagents and are not indicated for the BPI microtiter binding assay. Biological replicates shown here are experiments independently performed by using separately formulated solutions of the reagents.

[2] = system: T1, rBPI; test: NanoDSF thermal stability of rBPI with ligand; type: binding, human; settings: 5 μM rBPI, 30 μM ligand, PBS pH 7.4
Procedure: For thermal unfolding experiments, rBPI protein was diluted to a final concentration of 5 μM in PBS pH 7.4, either containing a ligand at 30 μM concentration [(R)-Pam3CSK4, (R)-FSL-1 or LPS EC] or in the absence of a ligand. For each condition, 10 μl of sample per capillary were prepared. The samples were loaded into UV capillaries and experiments were carried out using the Prometheus NT.48 (NanoTemper Technologies, Munich, Germany). The temperature gradient was set to an increase of 1°C/min with a range from 20 to 90°C. Protein unfolding was measured by detecting the temperature-dependent change in tryptophan fluorescence at emission wavelength of 350 nm (Figure 3E, upper panel). Melting temperature (Tm) was determined by detecting the maximum of the first derivative of the fluorescence wavelength 350 nm. For this purpose, an 8th order polynomial fit was calculated for the transition region (Figure 3E, lower panel). Next, the first derivative of the fit was formed and the peak position (at Tm) was determined. Finally, Tm shift (Tm protein alone — Tm protein with ligand) upon addition of ligand to the protein (in°C) was calculated. Technical and biological replicates were defined as described for BPI microtiter binding assays.

[3] = molecular target: T2, BPIN(A) (Homo sapiens, UniProt P17213); test: MicroScale Thermophoresis (MST) binding assay with neutrophil BPI; settings: 25°C
T2 construct: Bactericidal/permeability-increasing protein (BPI) extracted from neutrophils; purchased Athens Research and Technology; host or cells: neutrophils
T2 sequence (P17213 32-487): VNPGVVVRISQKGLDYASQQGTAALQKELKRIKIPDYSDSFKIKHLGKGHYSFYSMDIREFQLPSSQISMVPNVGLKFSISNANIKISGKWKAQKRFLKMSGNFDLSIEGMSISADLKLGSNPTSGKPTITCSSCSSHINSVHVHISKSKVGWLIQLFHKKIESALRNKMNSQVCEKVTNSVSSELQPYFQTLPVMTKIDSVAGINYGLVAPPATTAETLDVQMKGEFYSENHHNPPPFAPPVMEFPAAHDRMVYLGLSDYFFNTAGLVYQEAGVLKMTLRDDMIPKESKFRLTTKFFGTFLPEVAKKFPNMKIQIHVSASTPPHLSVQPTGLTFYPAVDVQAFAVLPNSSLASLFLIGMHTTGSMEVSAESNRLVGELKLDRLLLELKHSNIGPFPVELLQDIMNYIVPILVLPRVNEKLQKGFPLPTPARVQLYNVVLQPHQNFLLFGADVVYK
Procedure: BPIN(A) and rBPI were labeled with NT647 in PBS pH 7.4 (Monolith NT™ Protein Labeling Kit RED—NHS, NanoTemper Technologies, Munich, Germany). Concentration of labeled protein was determined using the NanoDrop (ThermoScientific, Wilmington, NC, USA) and Bradford assay (Promega, Mannheim, Germany). MicroScale Thermophoresis (MST) binding experiments were carried out with 5 nM labeled protein in binding buffer (10 mM HEPES pH 7.4, 150 mM NaCl, 0.1% Tween) with 0.05–1,679 nM of LPS EC or 0.196–6,436 nM of Pam3CSK4 or 0.61–20,000 nM of LTA SAΔlgt and LTA SPΔlgt or of >0.61–20,000 nM WTA SPΔlgt at 20–40% MST power, 20% LED power in premium capillaries on a Monolith NT.115 pico device at 25°C (NanoTemper Technologies, Munich, Germany). For MST binding assays based on Pam3CSK4 Fluorescein, 20 nM of the fluorescent molecule in binding buffer (10 mM HEPES pH 7.4, 150 mM NaCl, 0.1% Tween) was supplied with 0.018–600 nM BPIN(A) and measured at 40% MST power, 10% LED power in premium capillaries on a Monolith NT.115 pico device at 25°C (NanoTemper Technologies, Munich, Germany).
MST timetraces were recorded and the temperature jump or, respectively, thermophoresis was analyzed. The recorded fluorescence was plotted against the ligand concentration and curve fitting was performed with KaleidaGraph 4.5 using the dissocation constant (KD) fit formula derived from the law of mass action. […]

[4] = system: TLR2; set-up: method as in PMID 15193414; settings: cited from earlier work

| Compound | inhibition of binding of rBPI to LPS biotin-coated wells [1] | TLR2-stimulatory potential [4] | other results |
| --- | --- | --- | --- |
| CCCCCCCCCCCCCCCC(=O)OCC(CO)OC(=O)CCCCCCCCCCCCCCC (stereo not shown) [DAG, Diacyl-glycerol 16:0] | no inhibitory binding | – | – |
| (R)-Pam2CSK4: di-acylated lipopeptide; acyl-chain deleted at the amino-terminal cysteine of the residual peptide (CSKKKK; di-acylated: diacyl-thioglycerol motif on the cysteine; no acyl-chain at the amino-terminal cysteine of the residual peptide) | lower inhibitory potential | – | change in melting temperature (Tm) of rBPI [2]: decrease in Tm |
| Pam3CSK4 Fluorescein: Pam3CSK4, covalently labeled with fluorescein (CSKKKK) | – | – | Kd ([3]; 20 nM Pam3CSK4 Fluorescein incubated with increasing concentrations of unlabeled BPIN(A)): 20.3 nM |
| Pam3CSK4: tri-acylated lipopeptide; racemate of (R)-Pam3CSK4 and (S)-Pam3CSK4 (Palmitoyl-CSKKKK; not fully specified (residue 1); also: racemate of (R) and (S) forms at the glycerol centre) | inhibited binding of rBPI to LPS in a dose-dependent manner | – | Kd ([3]; BPIN(A) NT647 (5 nM) incubated with increasing concentrations of ligand): 66.7 nM |
| Pam 2^* CSK4: di-acylated lipopeptide; acyl-chain deleted at the O-2-position of the thioglycerol core (CSKKKK; also: di-acylated lipopeptide, acyl chain deleted at O-2 of thioglycerol core) | lower inhibitory potential | lack TLR2-stimulatory potential | – |
| PamCSK4: mono-acylated lipopeptide; glycerol-core with two fatty acids deleted, peptide with only one fatty acid (Palmitoyl-CSKKKK) | not enough to completely block the inhibitory potential | lack TLR2-stimulatory potential | – |
